Laboratory results taken from publication PMC11579541, “In vitro, in vivo, and in silico approaches for evaluating the preclinical DMPK profiles of ammoxetine, a novel chiral serotonin and norepinephrine reuptake inhibitor” (Frontiers in Pharmacology, 2024).
pIC50: −log10 of the molar value. Where “and” joins values, the source holds several entries; their conditions need not be identical. Identical values can stand only once.

Experiments:
Assay type in all cases: in vitro ADME
CYP 2C19 = CYP 2C19 (Homo sapiens, UniProt P33261); experiment: Phenotyping with recombinant human CYP 2C19; parameters: purchased BD (Woburn, USA); conditions: 5 μmol/L, 25 pmol/mL CYP, 1 h
Sequence of CYP 2C19 (P33261 whole entry): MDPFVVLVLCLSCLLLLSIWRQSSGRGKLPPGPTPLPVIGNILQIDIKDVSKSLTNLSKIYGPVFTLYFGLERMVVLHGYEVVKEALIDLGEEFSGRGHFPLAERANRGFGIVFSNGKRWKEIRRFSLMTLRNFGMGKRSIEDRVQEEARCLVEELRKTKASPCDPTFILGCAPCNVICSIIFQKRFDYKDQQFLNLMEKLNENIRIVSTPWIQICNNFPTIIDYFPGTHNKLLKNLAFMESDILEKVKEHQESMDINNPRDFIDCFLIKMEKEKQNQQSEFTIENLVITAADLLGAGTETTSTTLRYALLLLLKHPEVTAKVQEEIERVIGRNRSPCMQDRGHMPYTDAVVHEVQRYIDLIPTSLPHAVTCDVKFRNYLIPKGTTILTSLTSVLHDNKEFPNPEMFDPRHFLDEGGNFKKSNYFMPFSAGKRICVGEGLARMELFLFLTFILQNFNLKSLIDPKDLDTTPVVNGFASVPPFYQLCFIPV
Procedure: Ammoxetine (final concentration 5 μmol/L) was incubated with recombinant human CYP 3A4, CYP 1A2, CYP 2C9, CYP 2C19, and CYP 2D6 (final concentration 25 pmol/mL) in a 5 mmol/L K2HPO4 buffer at pH 7.4. The incubations were performed in quintuplicate. NADPH (final concentration 1 mmol/L) was added to initiate the incubation process. The mixture was then incubated at 37°C for 1 h. To stop the reaction, 200 μL of ice-cold acetonitrile/methanol (1:1, v/v) containing 500 ng/mL of L-phencynonate (IS) was added. The samples were vortexed for 2 min and centrifuged at 13,800×g and 4°C for 10 min. The supernatants obtained were analyzed using an LC-MS-MS method. To establish appropriate controls, zero-time controls and blank controls in the absence of NADPH were set up in parallel.

CYP 2E1 = target: T1, CYP 2E1 (Homo sapiens, UniProt P05181); experiment: CYP inhibition, cocktail-substrate method in HLM; conditions: probe chlorzoxazone
T1 construct: 0.5 mg/mL HLM, 1 mmol/L NADPH, and a cocktail of 10 probe substrates for 9 CYP isoforms; tissue BD (Woburn, USA); host or cells: pooled human liver microsomes
T1 sequence (P05181 whole entry, canonical isoform): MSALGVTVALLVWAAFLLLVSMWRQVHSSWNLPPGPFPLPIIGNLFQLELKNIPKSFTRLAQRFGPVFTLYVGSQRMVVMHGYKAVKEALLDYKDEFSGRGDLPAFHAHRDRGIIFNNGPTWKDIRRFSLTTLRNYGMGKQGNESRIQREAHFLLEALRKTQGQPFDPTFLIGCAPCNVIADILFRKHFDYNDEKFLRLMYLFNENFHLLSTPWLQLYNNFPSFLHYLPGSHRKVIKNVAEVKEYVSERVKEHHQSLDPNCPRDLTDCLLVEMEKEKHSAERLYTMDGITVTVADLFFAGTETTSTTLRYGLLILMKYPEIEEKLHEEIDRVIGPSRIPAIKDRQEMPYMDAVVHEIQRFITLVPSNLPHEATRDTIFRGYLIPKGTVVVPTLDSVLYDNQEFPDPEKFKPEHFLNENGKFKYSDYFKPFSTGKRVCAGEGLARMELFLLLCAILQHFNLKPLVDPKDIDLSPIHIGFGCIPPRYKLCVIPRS
Procedure: (§1) To assess the CYP inhibition profiling of ammoxetine, a high-throughput assay based on the cocktail-substrate method was performed, as described in the literature ([Kim et al., 2005]; [Kozakai et al., 2014]). Microsomal incubations were conducted in triplicate for 30 min at 37°C in a reaction system (200 μL) consisting of […] potassium phosphate buffer (pH 7.4), 0.5 mg/mL HLM, 1 mmol/L NADPH, and a cocktail of 10 probe substrates for 9 CYP isoforms. The final concentration of each CYP-specific substrate was chosen to be close to the Michaelis-Menten constant (K m ) value of the respective substrate ([Kim et al., 2005]; [Lee et al., 2024]). For instance, phenacetin (CYP 1A2) was used at a concentration of 50 μmol/L, coumarin (CYP 2A6) at 5 μmol/L, bupropion (CYP 2B6) at 50 μmol/L, amodiaquine (CYP 2C8) at 5 μmol/L, tolbutamide (CYP 2C9) at 100 μmol/L, S-mephenytoin (CYP 2C19) at 100 μmol/L, dextromethorphan (CYP 2D6) at 5 μmol/L, chlorzoxazone (CYP 2E1) at 50 μmol/L, and testosterone and midazolam (CYP 3A4) at 50 μmol/L. Ammoxetine was evaluated at five concentrations: 0.1, 1, 10, 50, and 100 μmol/L. Additionally, a blank control without ammoxetine was included. The incubation was terminated by adding an equal volume of ice-cold acetonitrile/methanol (1:1, v/v) along with the IS, dexmedetomidine (1 ng/mL). After a 20-fold dilution, the mixture was centrifuged at 13,800×g for 10 min at 4°C. The supernatants were used to measure the levels of metabolites from the respective probe substrates using an LC-MS-MS method. The half-maximal inhibitory concentration (IC50) values were subsequently calculated.

CYP 2A6 = target: T2, CYP 2A6 (Homo sapiens, UniProt P11509); experiment: CYP inhibition, cocktail-substrate method in HLM; conditions: probe coumarin
T2 construct: 0.5 mg/mL HLM, 1 mmol/L NADPH, and a cocktail of 10 probe substrates for 9 CYP isoforms; tissue BD (Woburn, USA); host or cells: pooled human liver microsomes
T2 sequence (P11509 1-494): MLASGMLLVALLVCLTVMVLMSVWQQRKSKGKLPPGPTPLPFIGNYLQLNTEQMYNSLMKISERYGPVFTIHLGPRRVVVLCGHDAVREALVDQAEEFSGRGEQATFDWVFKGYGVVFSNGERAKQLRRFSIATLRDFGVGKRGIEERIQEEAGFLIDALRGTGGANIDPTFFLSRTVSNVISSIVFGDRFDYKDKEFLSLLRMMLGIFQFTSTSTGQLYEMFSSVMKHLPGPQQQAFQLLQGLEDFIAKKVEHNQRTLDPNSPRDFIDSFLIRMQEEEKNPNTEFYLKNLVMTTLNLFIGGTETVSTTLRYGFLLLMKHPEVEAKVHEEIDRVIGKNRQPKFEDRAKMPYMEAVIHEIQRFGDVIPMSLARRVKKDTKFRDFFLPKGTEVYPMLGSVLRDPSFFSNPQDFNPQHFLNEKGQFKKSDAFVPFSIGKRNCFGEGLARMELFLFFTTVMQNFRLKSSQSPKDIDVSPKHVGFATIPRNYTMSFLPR
Procedure: as §1

CYP 2B6 = target: T3, CYP 2B6 (Homo sapiens, UniProt P20813); experiment: CYP inhibition, cocktail-substrate method in HLM; conditions: probe bupropion
T3 construct: 0.5 mg/mL HLM, 1 mmol/L NADPH, and a cocktail of 10 probe substrates for 9 CYP isoforms; tissue BD (Woburn, USA); host or cells: pooled human liver microsomes
T3 sequence (P20813 1-491): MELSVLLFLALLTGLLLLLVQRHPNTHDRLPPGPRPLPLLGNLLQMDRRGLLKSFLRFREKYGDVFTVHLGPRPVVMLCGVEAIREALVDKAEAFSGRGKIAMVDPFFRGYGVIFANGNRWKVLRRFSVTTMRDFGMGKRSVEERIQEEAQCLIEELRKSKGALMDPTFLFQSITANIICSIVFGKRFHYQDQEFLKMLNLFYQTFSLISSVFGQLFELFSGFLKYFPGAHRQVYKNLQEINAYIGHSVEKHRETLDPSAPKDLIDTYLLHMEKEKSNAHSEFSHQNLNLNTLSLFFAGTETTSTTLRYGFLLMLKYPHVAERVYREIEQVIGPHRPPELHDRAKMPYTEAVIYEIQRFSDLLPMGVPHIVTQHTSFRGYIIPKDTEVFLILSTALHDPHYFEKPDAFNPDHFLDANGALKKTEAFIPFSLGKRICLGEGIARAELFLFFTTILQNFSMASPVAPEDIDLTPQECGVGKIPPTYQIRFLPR
Procedure: as §1

CYP 2C8 = target: T4, CYP 2C8 (Homo sapiens, UniProt P10632); experiment: CYP inhibition, cocktail-substrate method in HLM; conditions: probe amodiaquine
T4 construct: 0.5 mg/mL HLM, 1 mmol/L NADPH, and a cocktail of 10 probe substrates for 9 CYP isoforms; tissue BD (Woburn, USA); host or cells: pooled human liver microsomes
T4 sequence (P10632 1-490): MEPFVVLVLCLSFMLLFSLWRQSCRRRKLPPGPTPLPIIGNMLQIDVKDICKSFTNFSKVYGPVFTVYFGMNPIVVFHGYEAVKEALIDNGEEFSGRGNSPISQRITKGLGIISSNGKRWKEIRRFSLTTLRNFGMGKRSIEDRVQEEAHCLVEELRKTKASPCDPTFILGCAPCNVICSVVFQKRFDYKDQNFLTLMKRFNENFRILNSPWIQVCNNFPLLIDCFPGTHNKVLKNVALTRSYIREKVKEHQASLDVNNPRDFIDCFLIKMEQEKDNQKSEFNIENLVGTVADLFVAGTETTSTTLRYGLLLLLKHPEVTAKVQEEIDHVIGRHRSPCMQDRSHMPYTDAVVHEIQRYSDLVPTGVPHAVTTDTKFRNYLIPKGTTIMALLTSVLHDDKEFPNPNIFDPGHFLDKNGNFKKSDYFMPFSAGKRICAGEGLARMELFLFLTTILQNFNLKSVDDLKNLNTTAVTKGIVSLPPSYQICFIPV
Procedure: as §1

- Transformation ratio% (CYP 2C19): 26.27±1.85% and 26.27%
- residuary concentration of ammoxetine, Mean±SD (CYP 2C19): 5.05±0.13
- pIC50 (CYP 2E1): < 4.00
- pIC50 (CYP 2A6): < 4.00
- pIC50 (CYP 2B6): < 4.00
- pIC50 (CYP 2C8): < 4.00
SMILES: CNCC[C@H](Oc1cccc2c1OCO2)c1cccs1 [ammoxetine]
